Nine molecules from patent publication US7105664B2, “5-Halogen-6-phenyl-7-fluoroalkylamino-triazolopyrimidines as fungicides” (BASF Aktiengesellschaft, priority 2001, dated 2006) can be followed below.

For test [1], the system named is Blumeria graminis f. sp. tritici. Put plainly: Control of powdery mildew on wheat, Comparison Trial 2. Format: in vivo. As to conditions: wheat variety Kanzler, untreated plants infected to 100%.
In another test the test system is Pyricularia oryzae. Format: in vivo. As to conditions: 200 ppm, rice seedlings variety Tai-Nong 67, protective; untreated plants infected to 90%.

As to `COc1cc(F)c(-c2c(Cl)nc3ncnn3c2NCC(F)(F)F)c(F)c1` [D], the “infection (% diseased leaf area)” value came out at 80% in test [1] (50 ppm) and 60% in test [1] (200 ppm).
For `CC(Nc1c(-c2c(F)cccc2F)c(Cl)nc2ncnn12)C(F)(F)F` (stereo not drawn) [C], the “infection (% diseased leaf area)” value in the test on Pyricularia oryzae is 20%.
Regarding `CC(CNc1c(-c2c(F)cc(F)cc2F)c(Cl)nc2ncnn12)CC(F)(F)F` (stereo not drawn) [I-3], the “infection (% diseased leaf area)” value in the test with Pyricularia oryzae worked out at 3%.
On to `Fc1cc(F)c(-c2c(Cl)nc3ncnn3c2NCC(F)(F)F)c(F)c1` [A], for which the “infection (% diseased leaf area)” value with Pyricularia oryzae is reported as 60%.
`Fc1cc(F)c(-c2c(Cl)nc3ncnn3c2NCC(F)C(F)(F)F)c(F)c1` (stereo not drawn) [I-1]: in the test with Pyricularia oryzae, the “infection (% diseased leaf area)” value is 3%.
In the case of `FC(F)=C(F)CCNc1c(-c2c(F)cc(F)cc2F)c(Cl)nc2ncnn12` [I-2], the “infection (% diseased leaf area)” value with Pyricularia oryzae amounted to 3%.
As for `COc1cc(F)c(-c2c(Cl)nc3ncnn3c2NC(C)C(F)(F)F)c(F)c1` (stereo not drawn) [E], the “infection (% diseased leaf area)” value in test [1] (50 ppm) and in test [1] (200 ppm) was 80% throughout.
Turning to `Fc1cccc(Cl)c1-c1c(Cl)nc2ncnn2c1NCC(F)(F)F` [B], the “infection (% diseased leaf area)” value in the test on Pyricularia oryzae turned out to be 10%.
`COc1cc(F)c(-c2c(Cl)nc3ncnn3c2NCCC(F)(F)F)c(F)c1` [I-7]: the “infection (% diseased leaf area)” value in test [1] (50 ppm) came out at 7%; in test [1] (200 ppm), 3%.
